Experimental data reported in patent publication US20120252689A1, “GENE EXPRESSION SIGNATURE FOR WNT/B-CATENIN SIGNALING PATHWAY AND USE THEREOF” (priority 2011, published 2012).

Key:
active β-catenin [1] = assay: Western blot of active β-catenin after Wnt3a treatment of 293H cells; format: cell-based, human; conditions: 400 ng/ml Wnt3a, 12 hour treatment in serum-free medium, compared to untreated samples, FIG. 2A
Description: The protocol that was used to identify the subject gene signature is depicted schematically in FIG. 1. As depicted therein, human embryonic kidney 293H cells were plated in 6-well plate in a density of 10′ cells per well in 2 ml growth medium. Plated cells were incubated in a cell culture incubator at 37 degrees C. with 5% CO2 supplied. Twenty four hours after plating, cells were transfected with siRNA specifically targeting β-catenin or non targeting siRNA as control. For each well, 6 μl of SureFECT transfection reagent (SABiosciences, a QIAGEN company) was diluted into 200 μl of OptiMEM medium (Invitrogen). The diluted transfection reagent was mixed with 20 nM −β catenin targeting siRNA duplex D ([…] (SEQ ID NO: 65)) (SABiosciences, a QIAGEN Company) or non-targeting siRNA ([…] (SEQ ID NO: 66)) (SABiosciences, a QIAGEN owned company) as control. […]
(§1) At the end of experimental treatment, cells were lysed in Modified RIPA buffer (150 mM NaCl, 50 mM TrisHCl, 1% IGEPAL, 0.5% sodium deoxycholate, 1 mM EDTA, 1% Triton X-100 and 0.1% SDS with protease and phosphatase inhibitor) (all chemicals from Sigma). […] After 15 minutes centrifuge at 15000 rpm at 4 degrees C., supernatant was transferred to a new 1.5 ml tube and protein concentration was measured with BCA protein assay according to manufacturer's standard protocol (Pierce). […]

[2] = test system: Wnt/β-catenin target genes such as β-catenin (CTNNB1), MYC, CCND1 and AXIN2; assay: Real-time RT-PCR of Wnt/β-catenin target genes after Wnt3a treatment of 293H cells; format: cell-based, human; conditions: 400 ng/ml Wnt3a, 12 hours, compared to untreated samples, FIG. 2B
Description: The protocol that was used to identify the subject gene signature is depicted schematically in FIG. 1. As depicted therein, human embryonic kidney 293H cells were plated in 6-well plate in a density of 10′ cells per well in 2 ml growth medium. Plated cells were incubated in a cell culture incubator at 37 degrees C. with 5% CO2 supplied. Twenty four hours after plating, cells were transfected with siRNA specifically targeting β-catenin or non targeting siRNA as control. For each well, 6 μl of SureFECT transfection reagent (SABiosciences, a QIAGEN company) was diluted into 200 μl of OptiMEM medium (Invitrogen). The diluted transfection reagent was mixed with 20 nM −β catenin targeting siRNA duplex D ([…] (SEQ ID NO: 65)) (SABiosciences, a QIAGEN Company) or non-targeting siRNA ([…] (SEQ ID NO: 66)) (SABiosciences, a QIAGEN owned company) as control. After incubation at room temperature for 20 min, the transfection mixture was added into 293H cells in 6-well plate with 2 ml growth medium. […]
For RNA extraction, cells were lysed in 200 μl of G6 buffer (SABiosciences, a QIAGEN company) for each well. […] The concentration of RNA was measured with Nanodrop spectrophotometer (Thermo SCIENTIFIC) and the RNA was further processed for real-time RT PCR or microarray gene expression profiling analysis. […]

active β-catenin [3] = assay: Western blot of active β-catenin after Wnt3a treatment of ten different cell lines; format: cell-based; conditions: 400 ng/ml Wnt3a, 12 h in serum-free medium, FIG. 3B
Description: To obtain ten positively regulated samples with Wnt3a treatment, ten different cell lines were plated in 6-well plates in a density of 2×10^5 cells/well/2 ml. After 24 h of plating, cells were switched to serum-free medium by removing normal culture medium, washing cells in PBS two times and replacing with 1 ml serum-free medium each well. After 12 hours in serum-free medium, cells were replaced with serum-free medium with or without 400 ng/ml Wnt3a in duplicate wells for an additional incubation of 12 h. At the end of 12 hours incubation, cells were either lysed in 50 μl modified RIPA buffer for protein lysate extraction or in 200 μl G6 lysis buffer for RNA isolation. The protein extraction and western blot was carried out according to western blot protocol with mouse anti-active β-catenin antibody (1:1000). […]
as §1

active β-catenin [4] = assay: Western blot of active β-catenin after LiCl treatment of 293H and CCD1079SK cells; format: cell-based, human; conditions: 20 μM LiCl, 24 h in serum-free medium, FIG. 3B
Description: For positive regulation with LiCl treatment, 293H and CCD1079SKcells were plated in 6-well plate in a density of 2×10^5 cells/well/2 ml and cells were switched to serum-free medium 24 hours after plating. After 12 hours incubation in serum-free medium, cells were treated with or without 20 μM LiCl for 24 h in serum-free medium. At the end of treatment, cells were lysed in 200 μl of G6 lysis buffer and RNA was isolated with RT2 qPCR-Grade RNA Isolation Kit from SABiosciences according to manufacturer's protocol described in experimental protocol section. The protein extraction and western blot was carried out according to western blot protocol with mouse anti-active β-catenin antibody (1:1000). […] The RNA was isolated with RT2 qPCR-Grade RNA Isolation Kit from SABiosciences according to manufacturer's protocol described in experimental protocol section.
as §1

Compound | protein levels of active β-catenin (active β-catenin [1]) | mRNA expression of Wnt/β-catenin target genes (CTNNB1, MYC, CCND1, AXIN2) [2] | active β-catenin protein levels (active β-catenin [3]) | active β-catenin protein levels (active β-catenin [4])
Wnt3a | increased protein levels of active β-catenin | upregulation of Wnt/β-catenin target genes | increased active β-catenin protein levels | –
[Cl-].[Li+] [LiCl] | – | – | – | increased active β-catenin protein levels
